Test results: patent US20160354359A1, “C[…]-[…] A NET INHIBITOR FOR ADM[…] A BRAIN-DEAD, HEART-BEATING POTENTIAL ORGAN DONOR” (VIVOLINE MEDICAL AB, priority 2008, published 2016)

Assays:
[1] = biological target: NET (norepinephrine transporter) (Homo sapiens, UniProt P23975); settings: cited from earlier work
[2] = in vivo; cited from earlier work
[3] = tested on: brain-dead pigs; assay: More than 20 experiments with pigs using cocaine in combination with adrenaline and noradrenaline, blood pressure over 24 hours; type: in vivo, pig; settings: from initiation of the intervention and over 24 hours
Excerpt: The inventor has performed more than 20 experiments with pigs and using cocaine in combination with adrenaline and noradrenaline.

[4] = tested on: brain-dead body of a pig; settings: adrenaline and noradrenaline at constant 0.4 ml/hour
Procedure: In this experiment, adrenaline and noradrenaline was added at a constant rate of 0.4 ml/hour.

[5] = tested on: brain-dead, heart-beating, respirated donor; settings: blood circulation
Procedure: In order to test this hypothesis, other NET inhibitors were tested, such as desipramine and imipramine, which both are known to be NET inhibitors.

[6] = tested on: alpha-1; assay: Potency as replacement of noradrenaline (alpha-1-agonist)
Excerpt: In some embodiments, the adrenaline and/or noradrenaline may be partly or entirely replaced by an equivalent substance. For example, phenylephrine is an alpha-1-agonist and may replace noradrenaline.

[7] = tested on: brain-dead body of a pig; assay: Experiment 2: infusion of desipramine solution with adrenaline and noradrenaline, blood pressure
Procedure: In addition 1 mg of adrenaline and 1 mg of noradrenaline was included in the solution.

[8] = tested on: blood pressure; settings: in vivo; cited from earlier work

NET (norepinephrine transporter), sequence (P23975 whole entry, species assumed): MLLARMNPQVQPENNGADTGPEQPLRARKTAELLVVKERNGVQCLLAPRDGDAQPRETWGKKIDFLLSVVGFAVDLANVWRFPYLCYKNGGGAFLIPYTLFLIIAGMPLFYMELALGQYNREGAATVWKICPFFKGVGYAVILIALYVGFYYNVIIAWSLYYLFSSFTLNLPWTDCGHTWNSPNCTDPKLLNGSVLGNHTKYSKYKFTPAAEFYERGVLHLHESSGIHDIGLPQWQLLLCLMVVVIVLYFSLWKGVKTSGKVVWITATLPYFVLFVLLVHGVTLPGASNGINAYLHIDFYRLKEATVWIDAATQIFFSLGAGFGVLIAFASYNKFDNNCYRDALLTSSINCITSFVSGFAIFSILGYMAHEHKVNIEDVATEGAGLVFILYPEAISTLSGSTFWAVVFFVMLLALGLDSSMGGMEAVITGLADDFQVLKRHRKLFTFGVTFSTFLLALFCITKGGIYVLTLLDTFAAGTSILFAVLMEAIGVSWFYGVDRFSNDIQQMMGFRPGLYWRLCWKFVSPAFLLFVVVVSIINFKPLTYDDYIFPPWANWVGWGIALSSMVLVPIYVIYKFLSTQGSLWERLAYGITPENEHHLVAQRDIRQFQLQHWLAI

Compound: CNCCCC1c2ccccc2C=Cc2ccccc21 [Protriptylin, Protriptyline]
- potency among typical NET inhibitors [1]: highest

Compound: COC(=O)[C@H]1[C@@H](OC(=O)c2ccccc2)C[C@@H]2CC[C@H]1N2C [cocaine, benzoylmethyl ecgonine]
- half-life time [2]: about 1 hours
- blood pressure maintained at a constant level [3]: 70 mmHg
- effect of bolus on blood pressure ([4]; bolus of 2 mg at 21 hours): increase of the blood pressure
- time after which the effect of the bolus ceased ([4]; bolus of 2 mg at 21 hours): about 3 hours
- effect of addition together with noradrenaline on noradrenaline needed for vasoconstriction [5]: much lower levels of noradrenaline

Compound: NC(=O)CC[C@@H]1NC(=O)[C@H](Cc2ccccc2)NC(=O)[C@H](Cc2ccc(O)cc2)NC(=O)[C@@H](N)CSSC[C@@H](C(=O)N2CCC[C@H]2C(=O)N[C@@H](CCCN=C(N)N)C(=O)NCC(N)=O)NC(=O)[C@H](CC(N)=O)NC1=O [ADH, vasopressin]
- half-life-time [2]: about 15 minutes

Compound: CNC[C@H](O)c1cccc(O)c1 [phenylephrine]
- times less potent as noradrenaline [6]: about 5 times

Compound: CNCCCN1c2ccccc2CCc2ccc(Cl)cc21 [Norclomipramine]
- potency among typical NET inhibitors [1]: highest

Compound: CN(C)CCCN1c2ccccc2CCc2ccccc21 [imipramine, Imipramine]
- blood pressure reached after bolus ([4]; bolus at 24.5 hours, from about 80 mmHg): about 100 mmHg

Compound: CNCCCN1c2ccccc2CCc2ccccc21 [desipramine, Desipramine]
- half-life time [2]: 30 h
- mean pressure reached on infusion ([7]; 3 mg desipramine, 1 mg adrenaline, 1 mg noradrenaline in 50 ml, 1.7 then 3.2 ml/hour, from a mean pressure of about 40 mmHg): 80 mmHg
- blood pressure after infusion rate was decreased ([7]; infusion decreased to 2.5 then 1.7 ml/hour, never decreased further): about 60 mmHg

Compound: CCN(CC)CC(=O)Nc1c(C)cccc1C [Lidocaine]
- effect of infusion on blood pressure [8]: vasodilatation and a lowering of the blood pressure
